Measured values reported in ChEMBL document CHEMBL4483862, “Open-source discovery of chemical leads for next-generation chemoprotective antimalarials” (2018).

Tested on: Plasmodium berghei
Assay: Luciferase/luciferin-expressing antifolate-resistant parasites were used to infect a culture of HepG2 cells that were pre-incubated with compounds. Infected hepatocytes emit light due to the luciferase reaction. Assay results are presented as the percent inhibition of light emission compared to control. […]
Type: functional
Details: sporozoite; for IC90: read-out: LUCIFERASE INFECTION ASSAY - IC90
[1] = read-out: LUCIFERASE INFECTION ASSAY - IC50

## CC(C)(C)c1ccc(OS(=O)(=O)c2ccc(Oc3c(Cl)cccc3[N+](=O)[O-])cc2)cc1
[1]
  IC50: > 7.14 µM
  IC90: > 7.14 µM

## COc1cc(/C=C(/C(=O)OCC(=O)NC2CCCCC2C)c2ccc(-c3ccccc3)cc2)cc(OC)c1OC (stereo not drawn)
HEPG2TOX_HILL_SLOPE 6.06, HEPG2TOX_R_SQUARED 0.736, PBLUC_HILL_SLOPE 16.1, PBLUC_R_SQUARED 0.664, read-out: LUCIFERASE INFECTION ASSAY - IC50
  IC50: 3.32 µM
  IC90: 3.8 µM

## CC1CCCCC1NC(=O)c1c[nH]c2ccc(Br)cc12 (stereo not drawn)
[1]
  IC50: > 10 µM
  IC90: > 10 µM

## Cc1c(C(=O)OCC(=O)N(Cc2ccccc2)Cc2ccccc2)sc2nc3n(c(=O)c12)CCC3
[1]
  IC50: 3.04 µM
  IC90: 3.43 µM

## O=C(NCC(=O)N1CCCC1)c1cccc2c3c([nH]c12)CCCCC3
PBLUC_HILL_SLOPE 19.4, PBLUC_R_SQUARED 0.17, read-out: LUCIFERASE INFECTION ASSAY - IC50
  IC50: 3.32 µM
  IC90: 3.72 µM

## COCCNCCOc1ccc(OCc2ccccc2)cc1
[1]
  IC50: > 10.9 µM
  IC90: > 10.9 µM

## Cc1cccc(Nc2ncc(C(=O)c3cccc(-c4ccncc4)c3)[nH]2)c1
HEPG2TOX_HILL_SLOPE 1.98, HEPG2TOX_R_SQUARED 0.759, PBLUC_HILL_SLOPE 4.11, PBLUC_R_SQUARED 0.608, read-out: LUCIFERASE INFECTION ASSAY - IC50
  IC50: 1.18 µM
  IC90: 2.02 µM

## C#CCNS(=O)(=O)c1cccc(C(=O)Nc2nc(C)c(C)s2)c1
[1]
  IC50: > 10 µM
  IC90: > 10 µM

## Cc1nc(C2CC2)ncc1-c1nc(=Nc2ccccc2)s[nH]1
HEPG2TOX_HILL_SLOPE 2.45, HEPG2TOX_R_SQUARED 0.884, PBLUC_HILL_SLOPE 3.42, PBLUC_R_SQUARED 0.283, read-out: LUCIFERASE INFECTION ASSAY - IC50
  IC50: 7.23 µM
  IC90: > 10.7 µM

## CC(C)(C)NC(=O)c1cc(-c2ccccc2Cl)nc2ccccc12
[1]
  IC50: > 9.74 µM
  IC90: > 9.74 µM

## Nc1nn(C(=O)c2csc3ccccc23)c2ccccc12
FFLUC_HILL_SLOPE 1.19, FFLUC_R_SQUARED 0.595, HEPG2TOX_HILL_SLOPE 0.0302, HEPG2TOX_R_SQUARED 0.0617, PBLUC_HILL_SLOPE 0.566, PBLUC_R_SQUARED 0.73, read-out: LUCIFERASE INFECTION ASSAY - IC50
  IC50: 0.359 µM
  IC90: > 10 µM

## CC(C)(C)c1ccc(NC(=S)NCCCCCCNC(=S)Nc2ccc(C(C)(C)C)cc2)cc1
[1]
  IC50: > 6.62 µM
  IC90: > 6.62 µM

## NC(=O)c1ccsc1NC(=O)Cc1coc2ccc3ccccc3c12
FFLUC_HILL_SLOPE 2.43, FFLUC_R_SQUARED 0.812, HEPG2TOX_HILL_SLOPE 2.74, HEPG2TOX_R_SQUARED 0.883, PBLUC_HILL_SLOPE 2.33, PBLUC_R_SQUARED 0.39, read-out: LUCIFERASE INFECTION ASSAY - IC50
  IC50: 5.74 µM
  IC90: > 10 µM

## O=c1cc(Nc2ccc(F)cc2)c2ccccc2o1
PBLUC_HILL_SLOPE 3.61, PBLUC_R_SQUARED 0.0806, read-out: LUCIFERASE INFECTION ASSAY - IC50
  IC50: 6.97 µM
  IC90: 12.8 µM

## O=c1c(Cl)c(Cl)cnn1-c1ccc(S(=O)(=O)Oc2ccccc2F)cc1
FFLUC_HILL_SLOPE 1.28, FFLUC_R_SQUARED 0.46, HEPG2TOX_HILL_SLOPE 12.5, HEPG2TOX_R_SQUARED 0.895, PBLUC_HILL_SLOPE 2.73, PBLUC_R_SQUARED 0.311, read-out: LUCIFERASE INFECTION ASSAY - IC50
  IC50: 3.61 µM
  IC90: 8.08 µM

## Cn1ccc2cc(-c3cn4c(-c5ccc(C#N)cc5)cnc4cn3)ccc21
HEPG2TOX_HILL_SLOPE 1.34, HEPG2TOX_R_SQUARED 0.963, PBLUC_HILL_SLOPE 3.57, PBLUC_R_SQUARED 0.761, read-out: LUCIFERASE INFECTION ASSAY - IC50
  IC50: 0.295 µM
  IC90: 0.546 µM

## COC(=O)c1c(N)[nH]c2cc(C(F)(F)F)ccc12
[1]
  IC50: > 12.8 µM
  IC90: > 12.8 µM

## CCOC(=O)c1cnc2cc(Cl)c(F)cc2c1N1CCOCC1
[1]
  IC50: > 9.74 µM
  IC90: > 9.74 µM

## O=C(Nc1ccc(Cl)c(C(F)(F)F)c1)C(OC(=O)C12CC3CC(CC(C3)C1)C2)c1ccccc1 (stereo not drawn)
HEPG2TOX_HILL_SLOPE 10.4, HEPG2TOX_R_SQUARED 0.074, PBLUC_HILL_SLOPE 15.3, PBLUC_R_SQUARED 0.511, read-out: LUCIFERASE INFECTION ASSAY - IC50
  IC50: 8.31 µM
  IC90: 9.6 µM

## Cc1csc(C(C#N)C(=O)COC(=O)c2ccccc2SCC(=O)N(C)C)n1 (stereo not drawn)
[1]
  IC50: > 10 µM
  IC90: > 10 µM

## CCCc1c(C(=O)OCC)cnn1-c1c(Cl)cc(Cl)cc1Cl
HEPG2TOX_HILL_SLOPE 1.55, HEPG2TOX_R_SQUARED 0.952, PBLUC_HILL_SLOPE 4.67, PBLUC_R_SQUARED 0.0395, read-out: LUCIFERASE INFECTION ASSAY - IC50
  IC50: 8.3 µM
  IC90: > 9.12 µM

## CCCNc1cc(-c2ccccc2)nc(-n2nc(C)cc2C)n1
PBLUC_HILL_SLOPE 8.43, PBLUC_R_SQUARED 0.511, read-out: LUCIFERASE INFECTION ASSAY - IC50
  IC50: 3.27 µM
  IC90: 4.24 µM

## Cc1ccc(N(CCC#N)C(=O)COC(=O)c2c3c(nc4ccccc24)/C(=C/c2c(F)cccc2Cl)CC3)cc1
[1]
  IC50: > 10 µM
  IC90: > 10 µM

## CCCCOc1ccc(CN2CCN(CC(=O)NC)CC2)cc1OCC
[1]
  IC50: > 10 µM
  IC90: > 10 µM

## Cc1c(C#N)c(Sc2ccccc2NC(=O)c2ccco2)nc2ccccc12
HEPG2TOX_HILL_SLOPE 2.88, HEPG2TOX_R_SQUARED 0.661, PBLUC_HILL_SLOPE 2.8, PBLUC_R_SQUARED 0.14, read-out: LUCIFERASE INFECTION ASSAY - IC50
  IC50: 3.82 µM
  IC90: 8.38 µM

## CCCn1nc(C(=O)N2CCCc3ccccc32)c2ccccc2c1=O
[1]
  IC50: > 10 µM
  IC90: > 10 µM

## Cc1ccc(-n2c(C)cc(C(=O)COC(=O)c3cccnc3O)c2C)cc1C
PBLUC_HILL_SLOPE 1.34, PBLUC_R_SQUARED 0.562, read-out: LUCIFERASE INFECTION ASSAY - IC50
  IC50: 1.29 µM
  IC90: 6.62 µM

## N#C/C(=N/Nc1ccc(OC(F)(F)F)cc1)C(N)=S
HEPG2TOX_HILL_SLOPE 2.59, HEPG2TOX_R_SQUARED 0.943, PBLUC_HILL_SLOPE 11.1, PBLUC_R_SQUARED 0.624, read-out: LUCIFERASE INFECTION ASSAY - IC50
  IC50: 3.57 µM
  IC90: 4.35 µM

## Cc1nn(Cc2nc3ccccc3s2)c(C)c1S(=O)(=O)N(C)Cc1ccco1
[1]
  IC50: > 10 µM
  IC90: > 10 µM

## CCOC(=O)c1c(C)[nH]c(C(=O)Nc2ccnn2Cc2ccc(Cl)cc2Cl)c1C
PBLUC_HILL_SLOPE 1.6, PBLUC_R_SQUARED 0.586, read-out: LUCIFERASE INFECTION ASSAY - IC50
  IC50: 3.97 µM
  IC90: > 10 µM

## COc1ccc(-c2ccc3c(c2)COC2(CCN(C(=O)c4cc(F)ccc4C)CC2)O3)cc1OC
[1]
  IC50: > 6.91 µM
  IC90: > 6.91 µM

## C=CCN(c1ccccc1)S(=O)(=O)c1cc(C(=O)NCc2ccc3c(c2)OCO3)ccc1Cl
[1]
  IC50: > 10 µM
  IC90: > 10 µM

## O=C1C=CC(=O)N1c1cc(Cl)cc(Cl)c1
FFLUC_HILL_SLOPE 11.6, FFLUC_R_SQUARED 0.448, PBLUC_HILL_SLOPE 9.84, PBLUC_R_SQUARED 0.0939, read-out: LUCIFERASE INFECTION ASSAY - IC50
  IC50: > 13.6 µM
  IC90: > 13.6 µM

## O=C(NC1CCCCC1)N1CCc2nc(NCc3cccc(Oc4ccccc4)c3)ncc2C1
HEPG2TOX_HILL_SLOPE 12.4, HEPG2TOX_R_SQUARED 0.711, PBLUC_HILL_SLOPE 13.6, PBLUC_R_SQUARED 0.535, read-out: LUCIFERASE INFECTION ASSAY - IC50
  IC50: 6.74 µM
  IC90: > 7.21 µM

## Cc1nn(Cc2nnc(SCC(=O)c3ccc(Cl)cc3)n2C)c(C)c1[N+](=O)[O-]
[1]
  IC50: > 7.84 µM
  IC90: > 7.84 µM

## NC(Cc1ccc(F)cc1)c1csc(Nc2ncccn2)n1 (stereo not drawn)
HEPG2TOX_HILL_SLOPE 5.82, HEPG2TOX_R_SQUARED 0.311, PBLUC_HILL_SLOPE 16.5, PBLUC_R_SQUARED 0.556, read-out: LUCIFERASE INFECTION ASSAY - IC50
  IC50: 3.58 µM
  IC90: 4.09 µM

## Cc1c(C)n(CCCO)c2ncn3nc(COc4ccccc4)nc3c12
FFLUC_HILL_SLOPE 0.782, FFLUC_R_SQUARED 0.957, PBLUC_HILL_SLOPE 0.808, PBLUC_R_SQUARED 0.882, read-out: LUCIFERASE INFECTION ASSAY - IC50
  IC50: 0.0238 µM
  IC90: 0.36 µM

## Cc1nc(NC(=O)c2cn3ccccc3n2)sc1Cc1ccc2c(c1)OCO2
PBLUC_HILL_SLOPE 53.8, PBLUC_R_SQUARED 0.294, read-out: LUCIFERASE INFECTION ASSAY - IC50
  IC50: 3.36 µM
  IC90: 3.5 µM

## Cc1cc(N)c(N)cc1C
PBLUC_HILL_SLOPE 0.927, PBLUC_R_SQUARED 0.706, read-out: LUCIFERASE INFECTION ASSAY - IC50
  IC50: 0.577 µM
  IC90: 6.18 µM

## O=C(Nc1sc2ccccc2c(=O)c1-c1ccccc1)C1CCCCC1
[1]
  IC50: > 9.08 µM
  IC90: > 9.08 µM

## CCC(C)c1ccc(NC(=O)/C(C#N)=C/c2cc3c(cc2[N+](=O)[O-])OCO3)cc1 (stereo not drawn)
HEPG2TOX_HILL_SLOPE 0.229, HEPG2TOX_R_SQUARED 0.341, PBLUC_HILL_SLOPE 0.634, PBLUC_R_SQUARED 0.752, read-out: LUCIFERASE INFECTION ASSAY - IC50
  IC50: 2.46 µM
  IC90: > 10 µM

## CC(C)(C)c1ccc(NC(=O)c2ccc(CCNS(C)(=O)=O)cc2)cc1
HEPG2TOX_HILL_SLOPE 2.32, HEPG2TOX_R_SQUARED 0.971, PBLUC_HILL_SLOPE 55.7, PBLUC_R_SQUARED 0.572, read-out: LUCIFERASE INFECTION ASSAY - IC50
  IC50: 3.32 µM
  IC90: 3.46 µM

## Clc1ccc(SCc2cc(N3CCCCC3)nc(-c3ccccn3)n2)cc1
HEPG2TOX_HILL_SLOPE 3.02, HEPG2TOX_R_SQUARED 0.983, PBLUC_HILL_SLOPE 17.6, PBLUC_R_SQUARED 0.462, read-out: LUCIFERASE INFECTION ASSAY - IC50
  IC50: 2.35 µM
  IC90: 2.67 µM

## CCNC(=O)N1CCc2nc(Nc3cc(Cl)cc(Cl)c3)ncc2C1
[1]
  IC50: > 9.01 µM
  IC90: > 9.01 µM
